We go through 18 compounds from US8318759B2, “Pyrrolidine derivatives as NK3 receptor antagonists” (Hoffmann-La Roche Inc., priority 2009, dated 2012).

Test system in the first experiment: not given
Assay: not given
The following applies: phase II trial; altered behavior, delusion, hallucinations, extreme emotions, excited motor activity, incoherent speech; cited from earlier work.
As to `CC(=O)N(C)C1(c2ccccc2)CCN(CCC[C@]2(c3ccc(Cl)c(Cl)c3)CCCN(C(=O)c3ccccc3)C2)CC1` [SR 142,801, Osanetant], the “activity on positive symptoms of schizophrenia” value is on record as “active”.

Staying with this experiment, now noted: phase II trial; depression, anhedonia, social isolation, memory and attention deficits; cited from earlier work.
As for `CC(=O)N(C)C1(c2ccccc2)CCN(CCC[C@]2(c3ccc(Cl)c(Cl)c3)CCCN(C(=O)c3ccccc3)C2)CC1` [SR 142,801, Osanetant], the “activity in the treatment of negative symptoms of schizophrenia” value was “inactive”.

The target of another experiment is T1, human NK3 receptor (Homo sapiens, UniProt P29371).
T1 construct: expressed in transfected cells; host or cells: HEK293 cells (transient expression), membranes
T1 sequence (P29371 1-465): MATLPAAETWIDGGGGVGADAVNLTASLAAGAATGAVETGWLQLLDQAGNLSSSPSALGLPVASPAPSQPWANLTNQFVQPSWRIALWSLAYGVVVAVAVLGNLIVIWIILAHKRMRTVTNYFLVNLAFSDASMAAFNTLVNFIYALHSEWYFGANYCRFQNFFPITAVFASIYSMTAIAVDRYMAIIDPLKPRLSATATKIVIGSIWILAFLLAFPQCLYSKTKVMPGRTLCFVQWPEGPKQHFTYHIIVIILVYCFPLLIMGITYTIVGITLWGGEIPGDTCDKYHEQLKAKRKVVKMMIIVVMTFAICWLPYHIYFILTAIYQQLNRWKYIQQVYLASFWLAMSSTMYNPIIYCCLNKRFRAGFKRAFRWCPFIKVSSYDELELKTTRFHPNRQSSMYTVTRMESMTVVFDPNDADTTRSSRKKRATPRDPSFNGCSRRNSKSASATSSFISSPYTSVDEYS
Nature of the experiment: [3H]SR142801 competition binding assay. Conditions: membrane from HEK293 cells transiently expressing recombinant human NK3 receptor; radioligand [3H]SR142801; Ki from IC50 by Cheng-Prussoff equation. On the procedure:
[^3H]SR142801 Competition Binding Assay
hNK3 receptor binding experiment were performed using [^3H]SR142801 (Catalog No. TRK1035, specific activity: 74.0 Ci/mmol, Amersham, GE Healthcare UK limited, Buckinghamshire, UK) and membrane isolated from HEK293 cells transiently expressing recombinant human NK3 receptor. After thawing, the membrane homogenates were centrifuged at 48,000×g for 10 min at 4° C., the pellets were resuspended in the 50 mM Tris-HCl, 4 mM MnCl2, 1 μM phosphoramidon, 0.1% BSA binding buffer at pH 7.4 to a final assay concentration of 5 μg protein/well. […] At the end of the incubation, membranes were filtered onto unitfilter (96-well white microplate with bonded GF/C filter preincubated 1 h in 0.3% PEI+0.3% BSA, Packard BioScience, Meriden, Conn.) with a Filtermate 196 harvester (Packard BioScience) and washed 4 times with ice-cold 50 mM Tris-HCl, pH 7.4 buffer. Nonspecific binding was measured in the presence of 10 μM SB222200 for both radioligands. The radioactivity on the filter was counted (5 min) on a Packard Top-count microplate scintillation counter with quenching correction after addition of 45 μl of microscint 40 (Canberra Packard S. A., Zürich, Switzerland) and shaking for 1 h. Inhibition curves were fitted according to the Hill equation: y=100/(1+(x/IC50)^nH), where nH=slope factor using Excel-fit 4 software (Microsoft). IC50 values were derived from the inhibition curve and the affinity constant (Ki) values were calculated using the Cheng-Prussoff equation Ki=IC50/(1+[L]/KD) where [L] is the concentration of radioligand and KD is its dissociation constant at the receptor, derived from the saturation isotherm. All experiments were performed in duplicate and the mean±standard error (SEM) of the individual Ki values was calculated.
The Ki is a measure of affinity in units of concentration, obtained from inhibition or displacement. Consider `C[C@@H](Nc1ccc(C(F)(F)F)cn1)[C@H]1CN(C(=O)N2CCN(S(C)(=O)=O)CC2)C[C@@H]1c1ccc(Cl)c(Cl)c1` (racemic) [Example 38, (3SR,4RS) {3-(3,4-Dichloro-phenyl)-4-[1-(RS)-(5-trifluoromethyl-pyridin-2-ylamino)-ethyl]-pyrrolidin-1-yl}-(4-methanesulfonyl-piperazin-1-yl)-methanone], for which the Ki came out at 22.3 nM.

For `CC1(C(=O)N2CCC(C(=O)N3CC(CNc4ccc(Cl)cn4)C(c4ccc(Cl)cc4)C3)CC2)CC1` (racemic) [Example 41, (3SR,4RS) {3-(4-Chloro-phenyl)-4-[(5-chloro-pyridin-2-ylamino)-methyl]-pyrrolidin-1-yl}-[1-(1-methyl-cyclopropanecarbonyl)-piperidin-4-yl]-methanone], the Ki was found to be 86.3 nM.

In the case of `CC1(C(=O)N2CCC(C(=O)N3C[C@H](CNc4ncc(C(F)(F)F)cn4)[C@@H](c4ccc(F)cc4)C3)CC2)CC1` (racemic) [Example 46], the Ki was determined as 22.8 nM.

For the compound `CN(C[C@H]1CN(C(=O)C2CCN(C(=O)C3(C)CC3)CC2)C[C@@H]1c1ccc(F)cc1)c1ncc(C(F)(F)F)cn1` (racemic) [Example 47], the Ki was found to be 71.6 nM.

For the compound `CS(=O)(=O)N1CCN(C(=O)N2C[C@H](CNc3ccc(C#N)cn3)[C@@H](c3ccc(Cl)c(Cl)c3)C2)CC1` [Example 8], the Ki came out at 71.1 nM.

`CS(=O)(=O)N1CCN(C(=O)N2C[C@H](CNc3ccc(C(F)(F)F)cn3)[C@@H](c3ccc(Cl)c(Cl)c3)C2)CC1` [Example 13, (3S,4S)-{3-(3,4-Dichloro-phenyl)-4-[(5-trifluoromethyl-pyridin-2-ylamino)-methyl]-pyrrolidin-1-yl}-(4-methanesulfonyl-piperazin-1-yl)-methanone]: the Ki turned out to be 6.6 nM.

With `CS(=O)(=O)N1CCN(C(=O)N2C[C@@H](CNc3ccc(C(F)(F)F)cn3)[C@H](c3ccc(Cl)c(Cl)c3)C2)CC1` [Example 14, (3R,4R)-{3-(3,4-Dichloro-phenyl)-4-[(5-trifluoromethyl-pyridin-2-ylamino)-methyl]-pyrrolidin-1-yl}-(4-methanesulfonyl-piperazin-1-yl)-methanone], the inhibition constant Ki came out at 92.4 nM.

Consider `CN(C[C@H]1CN(C(=O)C2CCN(C(=O)C3(C)CC3)CC2)C[C@@H]1c1ccc(Cl)cc1)c1ccc(C#N)cn1` [Example 51, 6-({(3S,4S)-4-(4-Chloro-phenyl)-1-[1-(1-methyl-cyclopropanecarbonyl)-piperidine-4-carbonyl]-pyrrolidin-3-ylmethyl}-methyl-amino)-nicotinonitrile], for which the Ki is 69.9 nM.

Consider `CN(C[C@H]1CN(C(=O)C2CCN(C(=O)C3(C)CC3)CC2)C[C@@H]1c1ccc(Cl)cc1)c1ccc(C(F)(F)F)cn1` [Example 53, [4-((3S,4S)-3-(4-Chloro-phenyl)-4-{[methyl-(5-trifluoromethyl-pyridin-2-yl)-amino]-methyl}-pyrrolidine-1-carbonyl)-piperidin-1-yl]-(1-methyl-cyclopropyl)-methanone], for which the Ki was 85.6 nM.

`CN(C[C@H]1CN(C(=O)C2CCN(C(=O)C3(C)CC3)CC2)C[C@@H]1c1ccc(Cl)cc1)c1ncc(C(F)(F)F)cn1` [Example 55, ((3S,4S)-3-(4-Chloro-phenyl)-4-{[methyl-(5-trifluoromethyl-pyrimidin-2-yl)-amino]-methyl}-pyrrolidin-1-yl)-[1-(1-methyl-cyclopropanecarbonyl)-piperidin-4-yl]-methanone]: the Ki is 42.9 nM.

With `CC1(C(=O)N2CCC(C(=O)N3C[C@H](CNc4ncc(C(F)(F)F)cn4)[C@@H](c4ccc(Cl)c(Cl)c4)C3)CC2)CC1` [Example 57, {(3S,4S)-3-(3,4-Dichloro-phenyl)-4-[(5-trifluoromethyl-pyrimidin-2-ylamino)-methyl]-pyrrolidin-1-yl}-[1-(1-methyl-cyclopropanecarbonyl)-piperidin-4-yl]-methanone], the Ki was found to be 1.8 nM.

With `Cc1cc(C(=O)N2C[C@H](CNc3ncc(C(F)(F)F)cn3)[C@@H](c3ccc(Cl)c(Cl)c3)C2)cnn1` [Example 58, {(3S,4S)-3-(3,4-Dichloro-phenyl)-4-[(5-trifluoromethyl-pyrimidin-2-ylamino)-methyl]-pyrrolidin-1-yl}-(6-methyl-pyridazin-4-yl)-methanone], the Ki is 1.2 nM.

As for `CN(C[C@H]1CN(C(=O)C2CCN(C(=O)C3(C)CC3)CC2)C[C@@H]1c1ccc(Cl)c(Cl)c1)c1ncc(C(F)(F)F)cn1` [Example 59, ((3S,4S)-3-(3,4-Dichloro-phenyl)-4-{[methyl-(5-trifluoromethyl-pyrimidin-2-yl)-amino]-methyl}-pyrrolidin-1-yl)-[1-(1-methyl-cyclopropanecarbonyl)-piperidin-4-yl]-methanone], the Ki was found to be 2.3 nM.

`Cc1cc(C(=O)N2C[C@H](CN(C)c3ncc(C(F)(F)F)cn3)[C@@H](c3ccc(Cl)c(Cl)c3)C2)cnn1` [Example 60, ((3S,4S)-3-(3,4-Dichloro-phenyl)-4-{[methyl-(5-trifluoromethyl-pyrimidin-2-yl)-amino]-methyl}-pyrrolidin-1-yl)-(6-methyl-pyridazin-4-yl)-methanone]: the Ki was determined as 15.8 nM.

On to `CN(C[C@H]1CN(C(=O)C2CCN(C(=O)C3(C)CC3)CC2)C[C@@H]1c1ccc(Cl)c(Cl)c1)c1ccc(C(F)(F)F)cn1` [Example 62, [4-((3S,4S)-3-(3,4-Dichloro-phenyl)-4-{[methyl-(5-trifluoromethyl-pyridin-2-yl)-amino]-methyl}-pyrrolidine-1-carbonyl)-piperidin-1-yl]-(1-methyl-cyclopropyl)-methanone], for which the Ki was found to be 8.4 nM.

As to `CN(C[C@H]1CN(C(=O)C2CCN(C(=O)C3(C)CC3)CC2)C[C@@H]1c1ccc(Cl)c(Cl)c1)c1ccc(C#N)cn1` [Example 64, 6-({(3S,4S)-4-(3,4-Dichloro-phenyl)-1-[1-(1-methyl-cyclopropanecarbonyl)-piperidine-4-carbonyl]-pyrrolidin-3-ylmethyl}-methyl-amino)-nicotinonitrile], the Ki was 31.8 nM.

In the case of `CN(C[C@H]1CN(C(=O)C2CCN(C(=O)C3(C)CC3)CC2)C[C@@H]1c1ccc(Cl)c(Cl)c1)c1ccc(Cl)cn1` [Example 66, {4-[(3S,4S)-3-{[(5-Chloro-pyridin-2-yl)-methyl-amino]-methyl}-4-(3,4-dichloro-phenyl)-pyrrolidine-1-carbonyl]-piperidin-1-yl}-(1-methyl-cyclopropyl)-methanone], the Ki was determined as 47 nM.
